Consider nine compounds from patent US6566375B1, “Elevation of HDL cholesterol by 4-[(aminothioxomethyl)-hydrazono]-N-(substituted)-4-arylbutanamides” (Wyeth, priority 1997, dated 2003).

The test system of one data set is HDL cholesterol. The experiment in a line: Cholesterol fed rat, in vivo assay of serum HDL cholesterol. More on the design: species or system Male Sprague-Dawley rats. The following applies: test substance mixed in diet for 8 days, serum HDL cholesterol by FPLC. On the procedure:
The compounds are tested in vivo in rats fed cholesterol-augmented rodent chow for 8 days according to the test protocol and blood from the rats analyzed for HDL cholesterol.
In Vivo Assa.: Male Sprague-Dawley rats weighing 200-225 g are housed two per cage and fed Purina Rodent Chow Special Mix 5001-S supplemented with 0.25% cholic acid and 1.0% cholesterol and water ad libitum for 8 days. Each test substance is administered to a group of six rats fed the same diet with the test diet mixed in as 0.005-0.1% of the total diet. Body weight and food consumption are recorded prior to diet administration and at termination. Typical doses of the test substances are 5-100 mg/kg/day.
At termination, blood is collected from anesthetized rats and the serum is separated by centrifugation. Total serum cholesterol is assayed using the Sigma Diagnostics enzymatic kit for the determination of cholesterol, Procedure No. 352, modified for use with ninety-six well microtiter plates. After reconstitution with water the reagent contains 300 U/I cholesterol oxidase, 100 U/I horse radish peroxidase, 0.3 mmoles/l of 4-aminoantipyrine and 30.0 mmoles/l of p-hydroxybenzenesulfonate in a pH 6.5 buffer. In the reaction cholesterol is ;oxidized to produce hydrogen peroxide which is used to form a quinoneimine dye. The concentration of dye formed is measured spectrophotometrically by absorbance at 490 nm after incubation at 25° C. for 30 minutes. The concentration of cholesterol was determined for each serum sample relative to a commercial standard from Sigma.
HDL cholesterol concentrations in serum are determined by separation of lipoprotein classes by fast protein liquid chromatography (FPLC) by a modification of the method of Kieft et al., J. Lipid Res., 32 (1991) 859-866. 25 μl of serum is injected onto Superose 12 and Superose 6 (Pharmacia), in series, with a column buffer of 0.05 M Tris (2-amino-2-hydroxymethyl-1,3-propanediol) and 0.15 M sodium chloride at a flow rate of 0.5 ml/min. The eluted sample is mixed on line with Boehringer-Mannheim cholesterol reagent pumped at 0.2 ml/min. The combined eluents are mixed and incubated on line through a knitted coil (Applied Biosciences) maintained at a temperature of 45° C. The eluent is monitored by measuring absorbance at 490 nm and gives a continuous absorbance signal proportional to the cholesterol concentration. The relative concentration of each lipoprotein class is calculated as the per cent of total absorbance. HDL cholesterol concentration, in serum, is calculated as the per cent of total cholesterol as determined by FPLC multiplied by the total serum cholesterol concentration.

SMILES strings stand for the structures.

The term melting point denotes the temperature of the solid-liquid transition. The compound `CCCCNC(=O)CCC(=NNC(N)=S)c1ccccc1` [Example 1, 2-(4-Butylamino-4-oxo-1-phenyl-butylidene)-hydrazinothiocarboxamide] had a melting point of 64 to 68 °C. Also, the “% Increase in HDL (Dose)” value in the data set on HDL cholesterol (100 mg/kg) came to 56%. Taken in the same sequence, the figures for `CC(C)NC(=O)CCC(=NNC(N)=S)c1ccccc1` [Example 2, 4-[(Aminothioxomethyl)hydrazono]-N-(1-methylethyl)-4-phenyl-butanamide] were 66 to 71 °C and 61.7%.

Turning to `NC(=O)CCC(=NNC(N)=S)c1ccccc1` [Example 3, 4-[(Aminothioxomethyl)-hydrazono]-4-phenylbutanamide], the melting point fell in the range of 186 to 188 °C. For the same compound, the “% Increase in HDL (Dose)” value in the data set with HDL cholesterol (50 mg/kg) was found to be 36.4%. Turning to `NC(=S)NN=C(CCC(=O)NCc1ccccc1)c1ccccc1` [Example 4, 4-[(Aminothioxomtethyl)-hydrazono]-N-benzyl-4-phenylbutanamide], the “% Increase in HDL (Dose)” value with HDL cholesterol (50 mg/kg) is on record as 49.5%. With `CNC(=O)CCC(=NNC(N)=S)c1ccccc1` [Example 5, 4-[(Aminothioxomrethyl)-hydrazono]-N-methyl-4-phenylbutanamide], in the data set with HDL cholesterol (100 mg/kg), the “% Increase in HDL (Dose)” value came to 43.3%. As for `NC(=S)NN=C(CCC(=O)NC1CCCCC1)c1ccccc1` [Example 6, 4-[(Aminothioxomethyl)-hydrazono]-N-cyclohexyl-4-phenylbutanamide], the melting point lay in the range of 89 to 92 °C. Further, the “% Increase in HDL (Dose)” value in the data set on HDL cholesterol (82 mg/kg) was 28.1%. `CN(C)C(=O)CCC(=NNC(N)=S)c1ccccc1` [Example 7, 4-[(Aminothioxomethyl)hydrazono]-N,N-dimethyl-4-phenylbutanamide]: the melting point was in the range of 173 to 175 °C. For the same compound, the “% Increase in HDL (Dose)” value in the data set on HDL cholesterol (50 mg/kg) came to 56.2%. In the case of `NC(=S)NN=C(CCC(=O)N1CCCCC1)c1ccccc1` [Example 8, 1-[4-[(Aminothioxomethyl)hydrazono]-1-oxo-4-phenylbutyl]piperidine], the melting point lay within 181 to 183 °C. In addition, the “% Increase in HDL (Dose)” value with HDL cholesterol (50 mg/kg) is listed as 52.8%. `CC(C)CCCC(C)NC(=O)CCC(=NNC(N)=S)c1ccccc1` (stereo not shown) [Example 9, 4-[(Aminothioxomethyl)-hydrazono]-N-(1,5-dimethylhexyl)-4-phenyl-butanamide] showed a melting point of 58 to 65 °C. The “% Increase in HDL (Dose)” value in the data set on HDL cholesterol (50 mg/kg) is reported as 40.4%.
